In the supplement of paper PMC10307832:

Tests used:
Experiment in all cases: relative viability (nuclei count vs DMSO), 5 days (fraction); higher = more cells survive
Decitabine + Trametinib = compound: Nc1ncn([C@H]2C[C@H](O)[C@@H](CO)O2)c(=O)n1 [Decitabine] + CC(=O)Nc1cccc(-n2c(=O)n(C3CC3)c(=O)c3c(Nc4ccc(I)cc4F)n(C)c(=O)c(C)c32)c1 [Trametinib] (partner 0.02 µM)
How it was run: (§1)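 Relative viability is defined as nuclei in treated wells over nuclei in vehicle wells. Duplicate plates were run and medians reported. Lung cancer cell lines in 1536-well plates were dosed by pin tool one day after seeding, with one drug or with a fixed anchor-drug dose plus five library-drug doses (not always all listed) in √10 steps, and nuclei were counted after 5 days.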

Cediranib + Alpelisib = compound: COc1cc2c(Oc3ccc4[nH]c(C)cc4c3F)ncnc2cc1OCCCN1CCCC1 [Cediranib] + Cc1nc(NC(=O)N2CCC[C@H]2C(N)=O)sc1-c1ccnc(C(C)(C)C(F)(F)F)c1 [Alpelisib] (partner 2 µM)
How it was run: as §1

Decitabine + AZD7762 = compound: Nc1ncn([C@H]2C[C@H](O)[C@@H](CO)O2)c(=O)n1 [Decitabine] + NC(=O)Nc1cc(-c2cccc(F)c2)sc1C(=O)N[C@H]1CCCNC1 [AZD7762] (partner 0.2 µM)
How it was run: as §1

Cell Line	relative viability (Decitabine + Trametinib; first compound 0.04 µM)	relative viability (Decitabine + Trametinib; first compound 0.1265 µM)	relative viability (Decitabine + Trametinib; first compound 0.4 µM)	relative viability (Decitabine + Trametinib; first compound 1.265 µM)	relative viability (Decitabine + Trametinib; first compound 4 µM)	relative viability (Cediranib + Alpelisib; first compound 0.04 µM)	relative viability (Cediranib + Alpelisib; first compound 0.4 µM)	relative viability (Cediranib + Alpelisib; first compound 1.265 µM)	relative viability (Cediranib + Alpelisib; first compound 4 µM)	relative viability (Decitabine + AZD7762; first compound 0.04 µM)	relative viability (Decitabine + AZD7762; first compound 0.1265 µM)	relative viability (Decitabine + AZD7762; first compound 0.4 µM)	relative viability (Decitabine + AZD7762; first compound 1.265 µM)	relative viability (Decitabine + AZD7762; first compound 4 µM)	relative viability (Cediranib + Alpelisib; first compound 0.1265 µM)
NCI-H23	0.344	0.365	0.238	0.191	0.255	0.625	0.667	0.7	0.734	0.196	0.271	0.154	0.131	0.162	–
NCI-H322M	0.508	0.453	0.6	0.457	0.486	0.687	0.655	0.723	0.685	0.546	0.619	0.478	0.445	0.501	0.84
NCI-H358	0.132	0.124	0.137	0.121	0.126	1.04	0.745	0.996	0.926	0.554	0.527	0.413	0.272	0.328	1.05
NCI-H441	0.317	0.281	0.255	0.183	0.206	0.629	–	0.638	0.781	0.422	0.428	0.287	0.259	0.254	0.69
NCI-H460	0.173	0.229	0.214	0.109	0.13	0.66	0.418	0.526	0.336	0.576	0.593	0.361	0.134	0.105	0.525
NCI-H596	0.881	0.744	0.509	0.575	0.542	0.489	0.478	0.509	0.577	1.07	1.14	0.699	0.913	0.881	0.481
NCI-H647	0.589	0.595	0.43	0.246	0.138	1.35	1.02	0.876	1.21	0.345	0.438	0.247	0.139	0.151	1.3
NCI-H650	0.717	0.561	0.418	0.319	0.259	1.06	1.05	1.12	1.21	0.775	0.618	0.427	0.388	0.346	1.02
NCI-H727	0.396	0.377	0.344	0.372	0.363	0.452	0.55	0.624	0.551	0.562	0.588	0.427	0.462	0.574	0.59
NCI-H838	0.476	0.397	0.237	0.283	0.279	1.06	0.97	0.962	1.13	0.74	0.753	0.815	0.68	0.659	0.997
NCI-H1355	0.371	0.382	0.337	0.224	0.248	0.993	0.704	0.838	0.956	0.442	0.473	0.376	0.267	0.241	0.879
NCI-H1395	0.793	0.906	0.828	0.655	0.607	0.947	1.01	1.04	1.04	0.379	0.39	0.446	0.391	0.348	–
NCI-H1437	0.444	0.412	0.404	0.337	0.342	1.02	0.971	0.954	1.12	1.1	0.962	0.758	0.61	0.391	1.03
NCI-H1651	0.787	0.757	0.692	0.622	0.487	1.04	1.02	1.01	0.805	0.43	0.446	0.336	0.341	0.355	1.03
NCI-H1666	0.785	0.873	0.713	0.783	0.836	1.04	0.875	0.924	0.962	0.826	0.872	0.696	0.787	0.763	0.995
NCI-H1734	0.595	0.575	0.404	0.313	0.333	0.626	0.711	0.619	0.848	0.417	0.51	0.501	0.209	0.209	0.741
NCI-H1755	0.653	0.743	0.688	0.564	0.488	1	0.854	0.918	1.01	0.634	0.463	0.56	0.467	0.419	0.919

Cell Line	relative viability (Decitabine + Trametinib; first compound 0.04 µM)	relative viability (Decitabine + Trametinib; first compound 0.1265 µM)	relative viability (Decitabine + Trametinib; first compound 0.4 µM)	relative viability (Decitabine + Trametinib; first compound 1.265 µM)	relative viability (Decitabine + Trametinib; first compound 4 µM)	relative viability (Cediranib + Alpelisib; first compound 0.04 µM)	relative viability (Cediranib + Alpelisib; first compound 0.4 µM)	relative viability (Cediranib + Alpelisib; first compound 1.265 µM)	relative viability (Cediranib + Alpelisib; first compound 4 µM)	relative viability (Decitabine + AZD7762; first compound 0.04 µM)	relative viability (Decitabine + AZD7762; first compound 0.1265 µM)	relative viability (Decitabine + AZD7762; first compound 0.4 µM)	relative viability (Decitabine + AZD7762; first compound 1.265 µM)	relative viability (Decitabine + AZD7762; first compound 4 µM)	relative viability (Cediranib + Alpelisib; first compound 0.1265 µM)
NCI-H1792	0.432	0.359	0.477	0.257	0.193	0.762	0.648	0.718	0.589	0.616	0.731	0.478	0.242	0.19	0.939
NCI-H1793	0.399	0.407	0.463	0.339	0.35	0.683	0.64	–	0.788	0.37	0.591	0.258	0.154	0.169	0.694
NCI-H1915	0.233	0.223	0.218	0.192	0.184	1.05	0.997	1.08	1.09	0.296	0.266	0.217	0.195	0.201	1
NCI-H1944	0.435	0.441	0.369	0.254	0.256	0.876	0.757	0.785	0.815	0.331	0.289	0.29	0.218	0.231	1.16
NCI-H1975	0.284	0.272	0.219	0.233	0.219	0.716	0.619	0.677	0.591	0.451	0.451	0.441	0.465	0.403	0.621
NCI-H1993	0.491	0.431	0.394	0.432	0.511	0.734	0.631	0.677	0.791	0.654	0.796	0.644	0.641	0.703	0.709
NCI-H2085	0.514	0.451	0.394	0.364	0.308	1.02	0.974	1.09	0.953	0.757	0.852	0.655	0.527	0.615	0.94
NCI-H2087	0.175	0.179	0.189	0.179	0.163	1.05	1.18	1.11	1.14	0.853	0.719	0.58	0.493	0.499	1.25
NCI-H2126	0.576	0.545	0.474	0.422	0.44	0.776	0.732	0.662	0.781	0.874	0.938	0.577	0.713	0.591	0.796
NCI-H2170	0.651	0.639	0.587	0.41	0.282	0.823	0.744	0.748	0.882	0.412	0.52	0.554	0.268	0.245	0.901
NCI-H2347	0.295	0.334	0.267	0.257	0.287	1.15	0.919	0.975	1.12	0.734	0.67	0.69	0.398	0.433	0.997
NCI-H2405	0.575	0.732	0.645	0.493	0.407	0.815	0.631	0.77	0.758	0.814	0.902	0.977	0.501	0.431	1.07
NCI-H3122	0.213	0.208	0.243	0.167	0.218	0.894	0.731	0.852	0.906	0.927	0.823	0.529	0.466	0.5	1.06
PC-3 [JPC-3]	–	0.7	0.498	0.485	0.657	0.953	0.998	1.02	0.97	–	0.793	0.6	0.453	0.602	0.976
PC-14	0.51	0.343	0.0811	0.146	0.128	0.96	0.906	0.965	0.986	0.194	0.281	0.124	0.159	0.116	1
RERF-LC-KJ	0.808	0.885	0.558	0.594	0.636	0.771	0.769	0.761	0.739	0.822	0.95	0.439	0.75	0.832	–
